Assay results from patent US9243254B2, “Method for transforming a bacterium belonging to the streptococcus genus by natural competence” (priority 2009, dated 2016).

Tests used:
S. thermophilus LMG18311 = test: Natural transformation in CDM upon addition of synthetic peptide; type: cell-based, Streptococcus thermophilus
S. thermophilus CNRZ1066 = test: as above; type: cell-based, Streptococcus thermophilus
Description: (§1) Similarly to the protocol used in example 4, strains LMD-9, LMG18311, CNRZ1066 and JIM8777 were pre-cultivated in M17-lactose medium. The cells of the precultures were harvested (5000 g, 9 minutes, 20° C.) and washed twice in CDM and then resuspended in CDM. The washed cells were diluted in fresh CDM medium to obtain an optical density of 0.05, and then incubated at 37° C. After 1.5 h of incubation, in one set of experiment, 1 μM of one of the tested synthetic peptides and 1 μg/mL of pGIUD0855ery DNA (in case of S. thermophilus strains), or 1 μg/ml of pG+host09 DNA (in case of S. salivarius strains) were added to the culture, whereas 1 μg/mL of DNA but no synthetic peptide was added to the second set of experiment. The cultures were grown during 6 hours and serial dilutions were plated on the surface of M17-lactose agar medium containing 2.5 μg/mL of erythromycin to measure transformation efficiency. Transformed S. thermophilus and S. salivarius cells are selected at 37° C. and 29° C., respectively.
(§2) Similarly to the protocol used in example 4, various S. thermophilus strains, including LMD-9, CNRZ1066 and LMG18311 used as controls, were pre-cultivated in M17-lactose medium. The cells of the precultures were harvested (5000 g, 9 minutes, 20° C.) and washed twice in CDM and then resuspended in CDM. The washed cells were diluted in fresh CDM medium to obtain an optical density of 0.05, and then incubated at 37° C. After 1.5 h of incubation, in one set of experiment, 1 μM of one of the tested synthetic peptides (LPYFAGCL) (SEQ ID NO: 85) and 1 μg/mL of pGIUD0855cat DNA were added to the culture, whereas 1 μg/mL of DNA but no synthetic peptide was added to the second set of experiment. Plasmid pGIUD0855cat is a pUC18-derivative containing a chloramphenicol resistance cassette flanked by 1-kb fragments corresponding to the upstream and downstream regions of stu0855. Upon transformation, it promotes the genetic replacement of stu0855 by P32-cat through homologous recombination (FIG. 7). The cultures were grown during 6 hours and serial dilutions were plated on the surface of M17-lactose agar medium containing 5 μg/mL of chloramphenicol to measure transformation efficiency. Transformed S. thermophilus cells were selected at 37° C.; when transformants were obtained, the transformation efficiency was calculated and is given in Table 9.
Day 2: • Centrifuge Day 1—culture (centrifugation parameters: 5000 g, 9 minutes, 15° C.) and perform two washing steps with one volume (10 mL) of CDM (centrifugation parameters: 5000 g, 9 minutes, 15° C.). • Dilute the culture in 10 mL CDM to obtain an OD600nm of 0.05. • A small volume of S. thermophilus cultures (300 μL) is then transferred in white microplate with a transparent bottom (655095; Greiner, Alphen aid Rijn, The Netherlands) and is grown at 37° C. Luminescence at 595 nm and optical density at 600 nm are recorded with the automatic Synergy HT multi-mode microplate reader. The luciferase activity catalysed by LuxAB requires the presence of nonanal as substrate. In this experimental set-up, nonanal (Acros Organics ref. 204-688-5) is supplied to the cultures by placing 50 μL of a solution containing 1% nonanal diluted in mineral oil in the spaces between the wells of a covered microplate (11). […] The luminescence and absorbance are scanned every 10 minutes during 6 hours. • To perform a competence experiment, 1 μg of donor DNA is added in the 300 μL samples in the beginning of incubation. […]

S. thermophilus DGCC7785 = test: as above; type: cell-based, Streptococcus thermophilus; details: 1 μM LPYFAGCL, 1 μg/mL pUC18_stu0855::P32cat
Description: as §2

S. thermophilus DGCC7909 = test: as above; type: cell-based, Streptococcus thermophilus; details: 1 μM LPYFAGCL, 1 μg/mL pUC18_stu0855::P32cat
Description: as §2

[1] = system: various S. thermophilus strains; test: Competence induction over the panel of S. thermophilus strains (summary of Table 9); type: cell-based, Streptococcus thermophilus
Description: as §2

S. salivarius JIM8777 = test: Natural transformation in CDM upon addition of synthetic peptide; type: cell-based, Streptococcus salivarius
Description: as §1
Day 2: • Centrifuge Day 1—culture (centrifugation parameters: 5000 g, 9 minutes, 15° C.) and perform two washing steps with one volume (10 mL) of CDM (centrifugation parameters: 5000 g, 9 minutes, 15° C.). • Dilute the culture in 10 mL CDM to obtain an OD600nm of 0.05. • A small volume of S. thermophilus cultures (300 μL) is then transferred in white microplate with a transparent bottom (655095; Greiner, Alphen aid Rijn, The Netherlands) and is grown at 37° C. Luminescence at 595 nm and optical density at 600 nm are recorded with the automatic Synergy HT multi-mode microplate reader. The luciferase activity catalysed by LuxAB requires the presence of nonanal as substrate. In this experimental set-up, nonanal (Acros Organics ref. 204-688-5) is supplied to the cultures by placing 50 μL of a solution containing 1% nonanal diluted in mineral oil in the spaces between the wells of a covered microplate (11). The nonanal present in the solution will become volatile and there will be an equilibrium between the concentration of nonanal present in the air and in the culture samples. The luminescence and absorbance are scanned every 10 minutes during 6 hours. • To perform a competence experiment, 1 μg of donor DNA is added in the 300 μL samples in the beginning of incubation. […] In case of the sample that received DNA, make different 10-fold dilutions of the sample and plate 100 μL on the same solid selective medium. Check the viability of the cells in the samples by plating 10 μL of serial 10-fold dilutions of the cultures on M17, lactose 1% medium. Transformants are picked following 24 h of incubation at 37° C. in anaerobic conditions (gaspak BBL). […]

[2] = 1 μM LPYFAGCL, 1 μg/mL pUC18_stu0855::P32cat, chloramphenicol selection
[3] = 1 μM PYFAGCL, 1 μg/mL pGIUD0855ery

LPYFAGCL (fragment) [synthetic peptide corresponding to a C-terminal fragment of Shp316]
Transformation rate, With peptide addition (S. thermophilus LMG18311; [2]): 1.3 × 10^−1
Calculated efficiency of transformation (S. thermophilus LMG18311; LPYFAGCL-induced competence, forty six μg of LMD-9 genomic DNA, selection on CDM agar deprived of histidine): 0.00016 µg⁻¹
Transformation rate, With peptide addition (S. thermophilus CNRZ1066; [2]): 3 × 10^−2
Transformation rate, With peptide addition (S. thermophilus DGCC7785): 4.1 × 10^−5
Transformation rate, With peptide addition (S. thermophilus DGCC7909): 4.5 × 10^−3
Improvement of the efficiency of transformation by the addition of the peptide ([1]; 1 μM LPYFAGCL versus no peptide): up to 6 Log
Number of strains competent when CDM is supplemented with the peptide ([1]; 1 μM LPYFAGCL, 9 competent without peptide): 19 strains
Number of strains whose efficiency of transformation was greatly improved by the addition of the peptide ([1]; out of the 19 competent strains): 17 strains

PYFAGCL (fragment)
Transformation rate, With peptide addition (S. thermophilus LMG18311; [3]): 3.17 × 10^−4
Increase of efficiency of transformation upon peptide addition (S. thermophilus LMG18311; 1 μM peptide in CDM versus no peptide): 1000 fold
Transformation rate, With peptide addition (S. thermophilus CNRZ1066; [3]): 3.69 × 10^−4
Complementation of the transformation defect in CDM (S. thermophilus CNRZ1066; 1 μM peptide, result in words): complements the transformation defect
Transformation rate, With peptide addition (S. salivarius JIM8777; 1 μM PYFAGCL, 1 μg/mL pG+host9): 3.07 × 10^−6
Complementation of the transformation defect in CDM (S. salivarius JIM8777; 1 μM peptide, result in words): complements the transformation defect
